The text below walks through data of PMC3671673, “In Vitro Morphological Assessment of Apoptosis Induced by Antiproliferative Constituents from the Rhizomes of Curcuma zedoaria” (Evidence-based Complementary and Alternative Medicine : eCAM, 2013).

For one experiment, the system named is MCF-7 cells. Kind of experiment: Hoechst 33342/PI dual staining, quantification of apoptotic/necrotic cells, MCF-7. The conditions noted are these: 48 h. In kind it is cell-based, human. As for the experimental part:
Briefly, cells were grown on tissue culture dishes and treated with or without tested compounds at concentrations of 12.5, 25, 40, and 50 μg/mL. After 48 hours, the cells were harvested and washed with cold PBS to a density of 5 × 10^5 cells/mL. The cells were suspended in Hoechst 33342 solution (10 μg/mL) and were incubated at 37°C in CO2 for 7 minutes. After incubation with Hoechst 33342, the cells were counter stained with propidium iodide (2.5 μg/mL). The samples were maintained in the dark for 15 minutes. After staining, an aliquot of cell suspension was placed on a glass microscope slides. The slides were observed immediately under inverted fluorescence microscope (DM16000B, Germany) using UV/488 dual excitation and the fluorescence was measured at ~460 nm emission of Hoechst 33342 dye and >575 nm emission of propidium iodide at 630x magnification. At least 200 total target cells were counted and the numbers of each four cellular states were recorded and analyzed using fluorescence microscopy for quantification of apoptosis and necrosis. The experiment was conducted in triplicates. The percentages of apoptotic and necrotic cells were determined according to the following formula [27]: (1) Percentage of Apoptotic Cells (%) =(LA+DA)/ LN+LA+DN+DA×100,Percentage of Necrotic Cells (%) = DN/LN+LA+DN+DA×100, where LN are live target cells with normal nuclei (Hoechst 33342/PI: blue chromatin with organized structure), LA are live cells with apoptotic nuclei (Hoechst 33342/PI: bright blue chromatin that is highly condensed or fragmented), DN are dead cells with normal nuclei (Hoechst 33342/PI: pink chromatin with organized structure), and DA are dead cells with apoptotic nuclei (Hoechst 33342/PI: bright pink chromatin that is, highly condensed or fragmented).

In experiment [1] the test system is cervical carcinoma cell line (Ca Ski). The experiment in a line: cells. In kind it is cell-based. The conditions noted are these: Homo sapiens, isolated compounds, 72 h, neutral red, mean ± SD of three replicates, read-out: IC50 (μg/mL) Ca Ski. As for the experimental part: (§1) The human cancer cells KB, Ca Ski, MCF-7, HCT-116, A549, and noncancer human cell lines (MRC-5) were purchased from the American Tissue Culture Collection (ATCC, USA). The supplemented RPMI 1640 media and eagle minimum essential medium (EMEM) were purchased from Sigma-Aldrich, USA. The supplements or antibiotics such as foetal bovine serum (FBS), penicillin/streptomycin (P/S) (100 μg/mL), amphotericin B (50 μg/mL), and accutase were purchased from PAA Laboratories, Austria. Sodium pyruvate (11 mg/mL) purchased from Sigma-Aldrich, USA. The cells were cultured in a SHEL LAB water-jacketed CO2 incubator with […] tissue culture flasks (Nunc, Denmark), which was observed routinely under inverted microscope (Leica DMI3000 B, Germany) for any contamination and seeded into 96-well flat bottom microtiter plate (Nunc, Denmark). The extract or pure compounds was dissolved in dimethyl sulfoxide (DMSO, Molecular Biology Grade, >99.9%) from Sigma-Aldrich, USA. Microtiter plate incubator shaker (LT Biomax 500) was used and absorbance was measured at 540 nm using an ELISA microplate reader (EMax microplate reader of Molecular Devices, USA). MCF-7 and Ca Ski were cultured in RPMI 1640 media supplemented with 10% v/v FBS, P/S, and amphotericin B and MRC-5 in EMEM media with 10% v/v FBS, P/S, amphotericin B, and sodium pyruvate. The cells were cultured in tissue culture flask in 5% CO2 incubator kept at 37°C in a humidified atmosphere and observed routinely under inverted microscope from any contaminations. Each fresh medium was replaced every 2 or 3 days until cell confluence was achieved and the cells were detached by using accutase.
(§2) The in vitro cytotoxicity activity was performed using the neutral red cytotoxicity assay based on the initial protocol as described earlier with some modifications. Briefly, cells were detached from the tissue culture flask with 1.0 mL solution of accutase and PBS solution. The cell pellet was obtained by centrifugation at 1,000 rpm for 5 minutes. The density of the viable cells was counted by 0.4% of trypan blue exclusion in a haemocytometer. Cells were then plated in 96-well microtiter plate (Nunc), at a concentration of 1 × 10^4 cells/well and incubated in a CO2 incubator at 37°C to allow the cells to adhere. After 24 h, the cells were treated with six different concentrations, that is, 1, 10, 25, 50, 75, and 100 μg/mL of each tested agent in three replicates. The plates were incubated for 72 h at 37°C in a 5% CO2 incubator. The untreated cells were regarded as a negative control, whilst cells incubated only with DMSO (0.5%, v/v) were used as a vehicle control. No effect due to the DMSO was observed. Doxorubicin was used as the positive control. After 72 h, the old medium was substituted with fresh medium containing 50 μg/mL neutral red. The 96-well plates were placed into incubator for 3 h. This is to allow the uptake of the vital dye into the lysosomes of viable and undamaged cells. Then, the media was discarded and cells were washed with 200 μL of neutral red washing solution. The dye was eluted from the cells by adding neutral red resorb solution (200 μL). The plate was further incubated for 30 min with rapid agitation on a microtiter plate shaker. The optical density (OD) of the eluted dye was read at 540 nm using a microplate reader. The experiments were conducted in triplicates. The percentage of inhibition of each of the test samples was calculated according to the following formula using the OD values obtained: percentage of inhibition (%) = (OD control − OD sample)/OD control × 100%. The average of three replicates was then obtained. Cytotoxicity of each test agent is expressed as IC50 value. The IC50 value is the concentration of test agents that cause 50% inhibition or cell death, averaged from the three experiments. The IC50 for each extract was extrapolated from the graphs of the percentage inhibition versus concentration of test agents.

Experiment [2] concerns hormone-dependent breast cancer cell line (MCF-7). The experiment in a line: cells. In kind it is cell-based. The conditions noted are these: Homo sapiens, MCF7; isolated compounds, 72 h, neutral red, mean ± SD of three replicates; read-out: IC50 (μg/mL) MCF-7. As for the experimental part: as §1, §2
Experiment [3] deals with active caspase-3 in HCT-116 cells. The experiment in a line: Flow cytometric active caspase-3 assay, HCT-116. In kind it is cell-based, human. As for the experimental part: Caspases are key mediators of cell death. Caspase-3 activity assay was performed using FITC Active Caspase-3 Apoptosis Kit (BD Pharmingen). These probes bind covalently and irreversibly to the active site of the active caspase heterodimer emitting the green fluorescent signal detected by the FL-1 channel. Briefly, the cancer cells were treated with curzerenone (25, 40, and 50 μg/mL) and alismol (12.5, 25, and 40 μg/mL) for 48 h. The assay was performed based on the manufacturer's protocol. Cells were analyzed using BD Accuri C6 flow cytometry and BD CFlow software.
On the technique in general: Flow cytometry measures light scatter and fluorescence of single cells or particles in a stream.

Experiment [4] has as its system noncancer human lung fibroblast cell line (MRC-5). The experiment in a line: Neutral red cytotoxicity assay, MRC-5. The conditions noted are these: MRC5, isolated compounds, 72 h, mean ± SD of three replicates, read-out: IC50 (μg/mL) MRC-5. The format is cell-based. As to the method:
as §1
as §2, with “The percentage of inhibition of each of the test samples was calculated according to the following formula using the OD values obtained: percentage of inhibition (%) = (OD control − OD sample)/OD control × 100%. The average of three replicates was then obtained.” left out, “The IC50 value is the concentration of test agents that cause 50% inhibition or cell death, averaged from the three experiments. The IC50 for each extract was extrapolated from the graphs of the percentage inhibition versus concentration of test agents.” left out

In brackets after ≈: the same amount, converted by molar mass. Marks after values point to notes of the source that are not given here.

As for `C=C1CCC(C(C)C)=CC2C1CC[C@@]2(C)O` (stereo partly drawn) [Alismol, alismol], the “Percentage of apoptotic cells (%)” value is given as 6.17 ± 0.58^a % in the experiment with MCF-7 cells (MCF-7, 12.5 μg/mL); 9.17 ± 1.5^b % in the experiment with MCF-7 cells (MCF-7, 25 μg/mL); 43.00 ± 1.0^d % in the experiment on MCF-7 cells (MCF-7, 40 μg/mL); 43.0 ± 1.0% with MCF-7 cells (MCF-7, 40 μg/mL, listed as alismol); 29.63 ± 1.1^c % in the experiment on MCF-7 cells (MCF-7, 50 μg/mL). Further, the “Percentage of necrotic cells (%)” value with MCF-7 cells (MCF-7, 12.5 μg/mL) is 3.83 ± 0.30^a %; with MCF-7 cells (MCF-7, 25 μg/mL), 5.17 ± 1.50^b %; with MCF-7 cells (MCF-7, 40 μg/mL), 38.33 ± 1.30^c %; in the experiment on MCF-7 cells (MCF-7, 50 μg/mL) it was 58.97 ± 1.10^d %; in the experiment with MCF-7 cells (MCF-7, 50 μg/mL, listed as alismol), 59.0 ± 1.1%. The IC50 in experiment [1] was 8.7 ± 1.1 µg/mL (≈ 39.5 µM); in experiment [2] it was 10 ± 0.7 µg/mL (≈ 45.4 µM); in experiment [4], above 100 µg/mL. For the same compound, the “highest increment of caspase-3 activity” value in experiment [3] (HCT-116, 40 μg/mL, 48 h) was determined as 45 folds.
`C=CC1(C)Cc2occ(C)c2C(=O)C1C(=C)C` (stereo not drawn) [Curzerenone, curzerenone]: the “Percentage of apoptotic cells (%)” value with MCF-7 cells (MCF-7, 12.5 μg/mL) is 4.83 ± 0.58^a %; in the experiment on MCF-7 cells (MCF-7, 25 μg/mL), 5.83 ± 0.76^a %; in the experiment with MCF-7 cells (MCF-7, 40 μg/mL), 53.00 ± 2.2^b %; in the experiment on MCF-7 cells (MCF-7, 40 μg/mL, listed as curzerenone), 53.0 ± 2.2%; in the experiment with MCF-7 cells (MCF-7, 50 μg/mL), 57.33 ± 4.65^b %. Further, the “Percentage of necrotic cells (%)” value is 2.00 ± 1.30^a % in the experiment with MCF-7 cells (MCF-7, 12.5 μg/mL); 3.83 ± 0.60^b % in the experiment with MCF-7 cells (MCF-7, 25 μg/mL); 5.50 ± 1.30^c % in the experiment on MCF-7 cells (MCF-7, 40 μg/mL); 17.83 ± 2.60^d % in the experiment with MCF-7 cells (MCF-7, 50 μg/mL). The IC50 in experiment [1] came to 8.9 ± 0.7 µg/mL (≈ 38.6 µM); in experiment [2] it was 40 ± 0.5 µg/mL (≈ 174 µM); in experiment [4], 20 ± 1.2 µg/mL (≈ 86.8 µM). In addition, the “highest increment in caspase-3 activity compared to untreated cells” value in experiment [3] (HCT-116, 48 h, concentration not given) is reported as 100 folds.
